We go through 14 compounds from article PMC7139731, “Synthesis, Anticancer Evaluation and Structure-Activity Analysis of Novel (E)- 5-(2-Arylvinyl)-1,3,4-oxadiazol-2-yl)benzenesulfonamides” (International Journal of Molecular Sciences, 2020).

The test system of data set [1] is HaCaT noncancerous keratinocyte cell line. Further details: method as in PMID 28364658. The following applies: MTT assay, 72 h incubation; compounds marked [18] ref 18; cited from earlier work.
For data set [2] the test system is unchanged. The experiment in a line: MTT cell viability assay, 72 h, HaCaT. The format is cell-based. The following applies: for activity against HaCaT compared with cancer lines: in words; for IC50: Homo sapiens, HaCaT, MTT assay, 72 h incubation, mean ± SD. The protocol: (§1) Compounds 7–36 and 47–54 were tested regarding their effect on growth of three human cancer cell lines: colon cancer HCT-116, breast cancer MCF-7 and cervical cancer HeLa, as well as on noncancerous keratinocyte cell line HaCaT. Cell viability was measured with MTT assay after 72 h of incubation with tested compound in five concentration 1–100 μM. The MTT test enables us to quantify the living cells by measuring the activity of mitochondrial enzymes, enables reducing tetrazolium dye MTT to purple formazan. In this manner, IC50—molar concentration [µM] that inhibits 50% net cell growth—was determined (Table 1 and Table 2).
(§2) All chemicals, if not stated otherwise, were obtained from Sigma-Aldrich (St. Louis, MO, USA). The MCF-7, HeLa and HaCaT cell lines were purchased from Cell Lines Services (Eppelheim, Germany), the HCT-116 cell line were obtained from ATCC (ATCC-No: CCL-247). Cells were cultured in Dulbecco’s modified Eagle’s medium (DMEM) supplemented with 10% fetal bovine serum, 2 mM glutamine, 100 units/mL penicillin, and 100 μg/mL streptomycin. Cultures were maintained in a humidified atmosphere with 5% CO2 at 37 °C in an incubator (HeraCell, Heraeus, Langenselbold, Germany). Cell viability was determined using the MTT [3-(4,5-dimethylthiazol-2-yl)-2,5-diphenyl-tetrazolium bromide] assay. Stock solutions of the studied compounds were obtained in 100% DMSO. […] Cells were seeded in 96-well plates at a density of 5 × 10^3 cells/well and treated for 72 h with the examined compounds in the concentration range 1–100 μM (1, 10, 25, 50 and 100 μM). Following treatment, MTT (0.5 mg/mL) was added to the medium and cells were further incubated for 2 h at 37 °C. Cells were lysed with DMSO and the absorbance of the formazan solution was measured at 550 nm with a plate reader Victor 1420 multilabel counter, (PerkinElmer, Inc. Waltham, MA USA). […] The experiment was performed in triplicate. Values are expressed as the mean ± SD of at least three independent experiments
A general note: Formazan colour is commonly taken as a measure of viable cells.

Data set [3] has as its system MCF-7 cells (breast cancer). The experiment in a line: MTT cell viability assay, 72 h, MCF-7. The format is cell-based, human. Particulars: Homo sapiens, MCF7, 72 h, MTT assay, 72 h incubation, mean ± SD. The protocol:
as §1, §2

The test system of data set [4] is HCT-116 cells (colon cancer). In words: MTT cell viability assay, 72 h, HCT-116. The format is cell-based, human. The following applies: for IC50: MTT assay, 72 h incubation, mean ± SD. The protocol: as §1, §2
Data set [5] concerns HeLa cells (cervical cancer). In words: MTT cell viability assay, 72 h, HeLa. The format is cell-based, human. The following applies: Homo sapiens, HeLa, 72 h, MTT assay, 72 h incubation, mean ± SD. The protocol: as §1, §2

Where two headings read alike, the source gives them in different places.

As a reminder, the IC50 is the concentration at which inhibition is half-maximal. As a reminder, the melting point is the temperature, or range, at which the solid turns liquid.

Take `NS(=O)(=O)c1cc(-c2nnc(/C=C/c3ccccc3)o2)c(Cl)cc1SCc1ccccc1` [Compound 8]: the IC50 in data set [1] is 20 ± 1 µM. Moreover, in data set [2], the “activity against HaCaT compared with cancer lines” value was “at the same level as against cancer lines”.

For `NS(=O)(=O)c1cc(-c2nnc(/C=C/c3ccccn3)o2)c(Cl)cc1SCc1ccccc1` [Compound 28, (E)-2-(Benzylthio)-4-chloro-5-(5-(2-(pyridin-2-yl)vinyl)-1,3,4-oxadiazol-2-yl)benzenesulfonamide], the melting point is 254 to 257 °C (dec.). The compound also came in with an IC50 in data set [3] of 115 ± 3 µM. In data set [4] (Homo sapiens, HCT-116, 72 h), this compound came in with an IC50 of 25 ± 1 µM. Also, half-maximal inhibition in data set [2] (IC50) was put at 140 ± 10 µM. Besides, in data set [5], the 50% inhibitory concentration (IC50) was determined as 130 ± 6 µM.

For `NS(=O)(=O)c1cc(-c2nnc(/C=C/c3c(Cl)cccc3Cl)o2)c(Cl)cc1SCc1ccccc1` [Compound 14], the IC50 in data set [1] was 160 ± 2 µM.

For `NS(=O)(=O)c1cc(-c2nnc(/C=C/c3ccc(Br)cc3)o2)c(Cl)cc1SCc1ccccc1` [Compound 16], in data set [1], the IC50 was 31 ± 1 µM.

Consider `NS(=O)(=O)c1cc(-c2nnc(/C=C/c3ccc(O)cc3)o2)c(Cl)cc1SCc1ccccc1` [Compound 18, (E)-2-(Benzylthio)-4-chloro-5-(5-(4-hydroxystyryl)-1,3,4-oxadiazol-2-yl)benzenesulfonamide], for which the 50% inhibitory concentration (IC50) in data set [3] is 59 ± 3 µM; in data set [4] (Homo sapiens, HCT-116, 72 h), 18 ± 1 µM; in data set [2], 25.6 ± 0.5 µM; in data set [5], 18.2 ± 0.5 µM. Besides, the “activity against HaCaT compared with cancer lines” value in data set [2] was “at the same level as against cancer lines”.

As to `NS(=O)(=O)c1cc(-c2nnc(/C=C/c3ccc(O)cc3)o2)c(Cl)cc1Cl` [Compound 17, (E)-2,4-Dichloro-5-(5-(4-hydroxystyryl)-1,3,4-oxadiazol-2-yl)benzenesulfonamide], the half-inhibitory concentration (IC50) in data set [3] was determined as 73 ± 3 µM; in data set [4] (Homo sapiens, HCT-116, 72 h), 49 ± 1 µM; in data set [2] it was 100 ± 5 µM; in data set [5], 99 ± 1 µM.

For `NS(=O)(=O)c1cc(-c2nnc(/C=C/c3ccc([N+](=O)[O-])s3)o2)c(Cl)cc1SCc1ccccc1` [Compound 32, (E)-2-(Benzylthio)-4-chloro-5-(5-(2-(5-nitrothiophen-2-yl)vinyl)-1,3,4-oxadiazol-2-yl)benzenesulfonamide], the IC50 is 55 ± 3 µM in data set [3]; 17 ± 1 µM in data set [4] (Homo sapiens, HCT-116, 72 h); 57 ± 1 µM in data set [2]; 58 ± 2 µM in data set [5].

As for `NS(=O)(=O)c1cc(-c2nnc(/C=C/c3ccco3)o2)c(Cl)cc1SCc1ccccc1` [Compound 34, (E)-2-(Benzylthio)-4-chloro-5-(5-(2-(furan-2-yl)vinyl)-1,3,4-oxadiazol-2-yl)benzenesulfonamide], the IC50 worked out at 62 ± 1 µM in data set [3]; 27.8 ± 0.3 µM in data set [4] (Homo sapiens, HCT-116, 72 h); 91 ± 3 µM in data set [2]; 85 ± 3 µM in data set [5].

Consider `N#Cc1ccc(/C=C/c2nnc(-c3ccc(S(N)(=O)=O)cc3)o2)cc1` [Compound 49, (E)-4-(5-(4-Cyanostyryl)-1,3,4-oxadiazol-2-yl)benzenesulfonamide], for which the half-maximal inhibitory concentration (IC50) in data set [3] was 75 ± 4 µM; in data set [4] (Homo sapiens, HCT-116, 72 h), 32 ± 2 µM; in data set [2], 98 ± 4 µM; in data set [5], 99 ± 3 µM.

For `NS(=O)(=O)c1cc(-c2nnc(/C=C/c3ccc([N+](=O)[O-])o3)o2)c(Cl)cc1SCc1ccccc1` [Compound 35, (E)-2-(Benzylthio)-4-chloro-5-(5-(2-(5-nitrofuran-2-yl)vinyl)-1,3,4-oxadiazol-2-yl)benzenesulfonamide], the IC50 in data set [3] came to 150 ± 8 µM; in data set [4] (Homo sapiens, HCT-116, 72 h) it was 4 µM; in data set [4] it was 4.1 ± 0.2 µM; in data set [2], 87 ± 4 µM; in data set [5] it was 69 ± 3 µM. The “times more active against HCT-116 than HaCaT” value in data set [4] (selectivity HCT-116 vs HaCaT) is 22 times. In addition, in data set [4] (selectivity HCT-116 vs HeLa), the “times more active against HCT-116 than HeLa” value worked out at 17 times. Also, in data set [4] (selectivity HCT-116 vs MCF-7), the “times more active against HCT-116 than MCF-7” value is recorded as 37 times. For the same compound, the “selectivity index SI (IC50 for HaCaT cell line/IC50 for cancerous cell line)” value in data set [2] (cancer line not given, active derivatives (IC50 for cancer line ≤ 25 µM)) is reported as 22.

Turning to `NS(=O)(=O)c1cc(-c2nnc(/C=C/c3ccc[nH]3)o2)c(Cl)cc1Cl` [Compound 36, (E)-5-(5-(2-(1H-Pyrrol-2-yl)vinyl)-1,3,4-oxadiazol-2-yl)-2,4-dichlorobenzenesulfonamide], the IC50 came out at 40 ± 1 µM in data set [3]; 39 ± 1 µM in data set [4] (Homo sapiens, HCT-116, 72 h); 98 ± 4 µM in data set [2]; 73 ± 3 µM in data set [5].

Turning to `NS(=O)(=O)c1cc(-c2nnc(/C=C/c3ccc(Br)cc3)o2)c(Cl)cc1Cl` [Compound 15, (E)-5-(5-(4-Bromostyryl)-1,3,4-oxadiazol-2-yl)-2,4-dichlorobenzenesulfonamide], the IC50 in data set [3] is 41 ± 1 µM; in data set [4] (Homo sapiens, HCT-116, 72 h) it was 34 ± 1 µM; in data set [2], 55 ± 2 µM; in data set [5] it was 34 ± 2 µM.

Turning to `N#Cc1ccc(/C=C/c2nnc(-c3cc(S(N)(=O)=O)c(Cl)cc3Cl)o2)cc1` [Compound 19, (E)-2,4-Dichloro-5-(5-(4-cyanostyryl)-1,3,4-oxadiazol-2-yl)benzenesulfonamide], the IC50 in data set [3] amounted to 10 ± 0.3 µM; in data set [4] (Homo sapiens, HCT-116, 72 h), 13.7 ± 0.5 µM; in data set [2] it was 102 ± 3 µM; in data set [5], 117 ± 6 µM.

As for `NS(=O)(=O)c1cc(-c2nnc(/C=C/c3ccc(C(F)(F)F)cc3)o2)c(Cl)cc1SCc1ccccc1` [Compound 22, (E)-2-(Benzylthio)-4-chloro-5-(5-(4-(trifluoromethyl)styryl)-1,3,4-oxadiazol-2-yl)benzenesulfonamide], the half-inhibitory concentration (IC50) was 30 ± 1 µM in data set [3]; 15.2 ± 0.1 µM in data set [4] (Homo sapiens, HCT-116, 72 h); 33 ± 1 µM in data set [2]; 33.4 ± 0.5 µM in data set [5].
